# Assay results as given in PubChem BioAssay (NCI).
#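 The compound was tested at five concentrations on cells cultured in 96-well plates, with a 48-hour exposure period. At the TGI there is no net growth.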
# Tests used:
# Test in all cases: NCI tumour cell line growth inhibition, 48 h
# [1] = tested on: KM20L2 colon
# [2] = tested on: DLD-1 colon
# [3] = tested on: M19-MEL melanoma
# [4] = tested on: SNB-78 CNS
# [5] = tested on: DMS 273 small cell lung
# [6] = tested on: RXF-631 renal
# [7] = tested on: P388 leukemia
# [8] = tested on: P388/ADR leukemia
# [9] = tested on: SN12K1 renal
Structure (SMILES),TGI [1],TGI [2],TGI [3],TGI [4],TGI [5],TGI [6],TGI [7],TGI [8],TGI [9]
O=C1C(=O)c2ccccc2C(O)=C1CCCc1ccc(Oc2ccccc2)cc1,73.2 µM,> 100 µM,37.9 µM,97.3 µM,51.8 µM,,,,
COc1cc(C(C)c2cc3c(cc2OCCO)OCO3)cc(OC)c1OC (configuration not stated),,> 100 µM,> 100 µM,> 100 µM,> 100 µM,,,,
CCOC(=O)Cc1cc(OC)c(OC)cc1/C(Cl)=C(\C=O)c1ccc(OC)c(OC)c1,35.7 µM,48.8 µM,55.6 µM,81.1 µM,44.3 µM,49 µM,,,
Cc1nc2c(sc(=S)n2-c2ccccc2)c(=O)[nH]1,,> 100 µM,,,,,,,
COc1ccc(C2N(NC(=O)c3ccncc3)C(=O)CS2(=O)=O)cc1F (configuration not stated),,> 100 µM,,> 100 µM,> 100 µM,> 100 µM,,,
COc1ccccc1Cc1nc(-c2ccccc2)nn(C2OC(COC(C)=O)C(OC(C)=O)C(OC(C)=O)C2OC(C)=O)c1=S (configuration not stated),> 100 µM,> 100 µM,> 100 µM,> 70.1 µM,> 79.6 µM,,> 100 µM,> 100 µM,> 53.4 µM
COc1cc2c(cc1OC)C(Cl)C(c1ccc(Cl)c(Cl)c1)=C2Cl (configuration not stated),25.7 µM,,32.2 µM,33.7 µM,14.7 µM,,,,
CC1(c2ccc[n+](Cc3ccccc3)c2)OCCO1,> 100 µM,> 100 µM,> 100 µM,> 100 µM,> 100 µM,,,,
COc1cc2cc[n+]3c(C)c4cc(OC)c(OC)cc4c([O-])c3c2cc1OC,> 100 µM,> 100 µM,> 100 µM,> 100 µM,> 100 µM,,,,
